Experimental data as given in patent publication US10562878B2, “Cycloalkylamines as monoamine reuptake inhibitors” (Sunovion Pharmaceuticals Inc., priority 2006, dated 2020).
pIC50: −log10 of the molar value. Where a name gives a salt, the structure may show the parent alone. Read-outs that look alike come from different tables or passages of the source.

How the values were obtained:
[1] = target: human dopamine transporter (Homo sapiens (Human), UniProt Q01959); assay: Dopamine functional uptake assay, recombinant human transporter in CHO-K1 or HEK293 cells; format: cell-based; conditions: read-out: hDAT IC50
[2] = target: human serotonin transporter (Homo sapiens (Human), UniProt P31645); assay: Serotonin functional uptake assay, recombinant human transporter in HEK-293 cells; format: cell-based; conditions: Human serotonin transporter uptake; read-out: hSERT IC50
[3] = target: T1, Norepinephrine Transporter (NET) sites in mouse brain (Mus musculus (Mouse), UniProt O55192); conditions: mice, 60 min after treatment
[4] = target: DA Transporter (DAT) sites in mouse brain (Mus musculus (Mouse), UniProt Q61327); assay: Ex vivo [3H] WIN 35428 binding to DAT sites in mouse brain after oral dosing; conditions: mice, 60 min after treatment; for receptor occupancy at 1 mg/kg / receptor occupancy at 3 mg/kg / receptor occupancy at 10 mg/kg / receptor occupancy at 30 mg/kg: mouse
mice [5] = assay: Mouse tail suspension test; format: in vivo
Rats = assay: Rat forced swim test; format: in vivo
[6] = target: 5-HT Transporter (SERT) sites in mouse brain (Mus musculus (Mouse), UniProt Q60857); assay: Ex vivo [3H] citalopram binding to SERT sites in mouse brain after oral dosing; conditions: mice, 60 min after treatment; for receptor occupancy at 1 mg/kg / receptor occupancy at 3 mg/kg / receptor occupancy at 10 mg/kg / receptor occupancy at 30 mg/kg: mouse
[7] = target: T1, Norepinephrine Transporter (NET) sites in mouse brain; assay: in vivo; conditions: po, read-out: NET % Transporter Occupancy
mice [8] = assay: Mouse locomotor activity; format: in vivo

Chain of human dopamine transporter (Q01959 whole entry): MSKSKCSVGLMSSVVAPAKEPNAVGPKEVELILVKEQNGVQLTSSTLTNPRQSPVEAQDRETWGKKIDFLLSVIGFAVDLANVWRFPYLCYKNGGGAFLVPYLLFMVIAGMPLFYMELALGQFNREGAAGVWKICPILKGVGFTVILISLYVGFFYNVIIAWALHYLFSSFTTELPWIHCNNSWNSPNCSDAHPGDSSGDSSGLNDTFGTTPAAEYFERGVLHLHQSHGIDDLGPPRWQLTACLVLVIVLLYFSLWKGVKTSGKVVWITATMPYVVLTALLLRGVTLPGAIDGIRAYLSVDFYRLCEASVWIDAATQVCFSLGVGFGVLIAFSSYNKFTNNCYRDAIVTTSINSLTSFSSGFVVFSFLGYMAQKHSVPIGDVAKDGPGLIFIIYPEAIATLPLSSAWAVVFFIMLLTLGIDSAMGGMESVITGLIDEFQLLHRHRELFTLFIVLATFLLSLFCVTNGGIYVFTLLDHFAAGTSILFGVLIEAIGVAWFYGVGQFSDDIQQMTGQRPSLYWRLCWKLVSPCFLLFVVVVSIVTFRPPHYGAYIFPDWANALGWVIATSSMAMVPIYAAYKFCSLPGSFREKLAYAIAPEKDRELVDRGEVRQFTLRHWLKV
Chain of human serotonin transporter (P31645 whole entry): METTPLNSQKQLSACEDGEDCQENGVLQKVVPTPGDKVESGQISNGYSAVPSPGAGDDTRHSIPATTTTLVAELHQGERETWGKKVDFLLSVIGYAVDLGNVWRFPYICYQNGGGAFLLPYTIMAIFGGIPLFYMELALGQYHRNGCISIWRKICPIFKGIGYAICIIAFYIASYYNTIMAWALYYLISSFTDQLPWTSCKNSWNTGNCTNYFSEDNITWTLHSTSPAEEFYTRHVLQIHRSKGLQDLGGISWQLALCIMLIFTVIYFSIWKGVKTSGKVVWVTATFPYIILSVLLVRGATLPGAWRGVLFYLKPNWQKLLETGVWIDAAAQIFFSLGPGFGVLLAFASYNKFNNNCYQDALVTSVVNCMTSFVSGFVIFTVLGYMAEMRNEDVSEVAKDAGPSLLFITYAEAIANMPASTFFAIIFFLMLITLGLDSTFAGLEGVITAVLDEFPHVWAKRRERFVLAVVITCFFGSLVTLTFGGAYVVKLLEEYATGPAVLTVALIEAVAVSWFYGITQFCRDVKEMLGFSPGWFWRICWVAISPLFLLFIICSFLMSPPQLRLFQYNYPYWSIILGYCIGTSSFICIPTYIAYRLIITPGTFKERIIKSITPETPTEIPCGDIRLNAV

SMILES	NET Mean Specific Binding ± S.E.M. ([3]; 1 mg/kg PO) [dpm]	NET Mean Specific Binding ± S.E.M. ([3]; 3 mg/kg PO) [dpm]	NET Mean Specific Binding ± S.E.M. ([3]; 10 mg/kg PO) [dpm]	NET Mean Specific Binding ± S.E.M. ([3]; 30 mg/kg PO) [dpm]	DAT Mean Specific Binding ± S.E.M. ([4]; 1 mg/kg PO) [dpm]	DAT Mean Specific Binding ± S.E.M. ([4]; 3 mg/kg PO) [dpm]	DAT Mean Specific Binding ± S.E.M. ([4]; 30 mg/kg PO) [dpm]	receptor occupancy at 1 mg/kg ([4]; 1 mg/kg PO) [%]	receptor occupancy at 3 mg/kg ([4]; 3 mg/kg PO) [%]	receptor occupancy at 10 mg/kg ([4]; 10 mg/kg PO) [%]	receptor occupancy at 30 mg/kg ([4]; 30 mg/kg PO) [%]	Mouse Tail Suspension Mean Immobility Time ± S.E.M. (mice [5]; 10 mg/kg PO)	Mouse Tail Suspension Mean Immobility Time ± S.E.M. (mice [5]; 30 mg/kg PO)	Rat Forced Swim Climbing (Means ± S.E.M.) (Rats; 3 mg/kg PO)	Rat Forced Swim Immobility (Means ± S.E.M.) (Rats; 3 mg/kg PO)	receptor occupancy at 1 mg/kg ([6]; 1 mg/kg PO) [%]	receptor occupancy at 1 mg/kg [7] [%]	receptor occupancy at 3 mg/kg [7] [%]	receptor occupancy at 10 mg/kg [7] [%]	receptor occupancy at 30 mg/kg [7] [%]	further results
CN(C)C[C@]1(c2ccc(Cl)c(Cl)c2)CCCC[C@H]1O (relative stereo) [153 E2, trans-2-(3,4-dichlorophenyl)-2-((dimethylamino)methyl)cyclohexanol]	1804 ± 79	1726 ± 44	1734 ± 62	1140 ± 53	22774 ± 916	24159 ± 1313	16194 ± 1293	-10	-16	-6	22	170.2 ± 6.3	154.5 ± 8.4	8.8 ± 1.5	49.9 ± 1.7	-1	6	10	9	40	pIC50 [1]: 7.60; pIC50 [2]: 7.19; Rat Forced Swim Swimming (Means ± S.E.M.) (Rats; 3 mg/kg PO): 1.9 ± 0.8; Rat Forced Swim Climbing (Means ± S.E.M.) (Rats; 10 mg/kg PO): 11.7 ± 1.8; Rat Forced Swim Immobility (Means ± S.E.M.) (Rats; 10 mg/kg PO): 44.0 ± 2.1; Rat Forced Swim Swimming (Means ± S.E.M.) (Rats; 10 mg/kg PO): 4.3 ± 1.1; Rat Forced Swim Climbing (Means ± S.E.M.) (Rats; 30 mg/kg PO): 22.2 ± 5.2; Rat Forced Swim Immobility (Means ± S.E.M.) (Rats; 30 mg/kg PO): 31.3 ± 6.7; Rat Forced Swim Swimming (Means ± S.E.M.) (Rats; 30 mg/kg PO): 4.6 ± 1.3; SERT Mean Specific Binding ± S.E.M. ([6]; 1 mg/kg PO): 3271 ± 199 dpm; SERT Mean Specific Binding ± S.E.M. ([6]; 3 mg/kg PO): 2968 ± 100 dpm; SERT Mean Specific Binding ± S.E.M. ([6]; 10 mg/kg PO): 2327 ± 150 dpm; SERT Mean Specific Binding ± S.E.M. ([6]; 30 mg/kg PO): 1359 ± 89 dpm; receptor occupancy at 3 mg/kg ([6]; 3 mg/kg PO): 8%; receptor occupancy at 10 mg/kg ([6]; 10 mg/kg PO): 28%; receptor occupancy at 30 mg/kg ([6]; 30 mg/kg PO): 58%
CN(C)C[C@]1(c2ccc3ccccc3c2)CCCC[C@H]1O (relative stereo) [164 E2, trans-2-((dimethylamino)methyl)-2-(naphthalen-2-yl)cyclohexanol]	–	–	–	–	–	–	–	–	–	–	–	–	141.8 ± 6.0	–	–	–	–	–	–	–	–
CCC(N)C1(c2ccc(Cl)c(Cl)c2)CCCCC1 (single isomer, unassigned) [17 E1, 1-(1-(3,4-dichlorophenyl)cyclohexyl)propan-1-amine]	–	–	–	–	–	–	–	–	–	–	–	182.6 ± 4.1	150.9 ± 7.8	–	–	–	–	–	–	–	Mouse Locomotor Activity Total Distance Traveled ± S.E.M. (mice [8]; 3 mg/kg PO): 649.3 ± 78.4; Mouse Locomotor Activity Total Distance Traveled ± S.E.M. (mice [8]; 10 mg/kg PO): 478.3 ± 88.5; Mouse Locomotor Activity Total Distance Traveled ± S.E.M. (mice [8]; 30 mg/kg PO): 428.3 ± 120.6; Mouse Tail Suspension Mean Immobility Time ± S.E.M. (mice [5]; 3 mg/kg PO): 184.7 ± 9.0
CNC(C)C1(c2ccc(Cl)c(Cl)c2)CCCCC1 (single isomer, unassigned) [44 E1, 1-(1-(3,4-dichlorophenyl)cyclohexyl)-N-methylethanamine]	–	–	–	–	–	–	–	–	–	–	–	–	120.4 ± 9.0	–	–	–	–	–	–	–	Mouse Locomotor Activity Total Distance Traveled ± S.E.M. (mice [8]; 30 mg/kg PO): 402.3 ± 71.0
CC(N(C)C)C1(c2ccc3ccccc3c2)CCCCC1 (single isomer, unassigned) [56 E1, N,N-dimethyl-1-(1-(naphthalen-2-yl)cyclohexyl)ethanamine]	616 ± 50	368 ± 17	106 ± 20	19 ± 2	41561 ± 1611	42127 ± 2130	14637 ± 1567	5	4	23	67	174.8 ± 6.1	141.9 ± 7.4	7.1 ± 1.6	52.2 ± 1.6	19	20	52	86	98	DAT Mean Specific Binding ± S.E.M. ([4]; 10 mg/kg PO): 33478 ± 1779 dpm; Rat Forced Swim Swimming (Means ± S.E.M.) (Rats; 3 mg/kg PO): 0.3 ± 0.2; Rat Forced Swim Climbing (Means ± S.E.M.) (Rats; 10 mg/kg PO): 8.6 ± 0.9; Rat Forced Swim Immobility (Means ± S.E.M.) (Rats; 10 mg/kg PO): 50.7 ± 1.0; Rat Forced Swim Swimming (Means ± S.E.M.) (Rats; 10 mg/kg PO): 0.8 ± 0.3; Rat Forced Swim Climbing (Means ± S.E.M.) (Rats; 30 mg/kg PO): 17.9 ± 2.4; Rat Forced Swim Immobility (Means ± S.E.M.) (Rats; 30 mg/kg PO): 40.4 ± 2.7; Rat Forced Swim Swimming (Means ± S.E.M.) (Rats; 30 mg/kg PO): 1.0 ± 0.4; SERT Mean Specific Binding ± S.E.M. ([6]; 1 mg/kg PO): 2625 ± 138 dpm; SERT Mean Specific Binding ± S.E.M. ([6]; 3 mg/kg PO): 1346 ± 109 dpm; SERT Mean Specific Binding ± S.E.M. ([6]; 10 mg/kg PO): 278 ± 42 dpm; SERT Mean Specific Binding ± S.E.M. ([6]; 30 mg/kg PO): 151 ± 60 dpm; receptor occupancy at 3 mg/kg ([6]; 3 mg/kg PO): 58%; receptor occupancy at 10 mg/kg ([6]; 10 mg/kg PO): 91%; receptor occupancy at 30 mg/kg ([6]; 30 mg/kg PO): 95%
CN[C@H](C)C1(c2ccc(Cl)c(Cl)c2)CCCCC1 (stereo in doubt) [48 E1, 1-(1-(3,4-dichlorophenyl)cyclohexyl)-N-methylethanamine hydrochloride]	2111 ± 119	1911 ± 144	954 ± 115	346 ± 55	20656 ± 1531	18039 ± 1265	3173 ± 541	-1	11	52	84	174.1 ± 5.8	134.5 ± 9.6	7.1 ± 0.6	49.6 ± 1.5	-1	12	21	60	86	DAT Mean Specific Binding ± S.E.M. ([4]; 10 mg/kg PO): 9792 ± 977 dpm; Rat Forced Swim Swimming (Means ± S.E.M.) (Rats; 3 mg/kg PO): 3.7 ± 1.0; Rat Forced Swim Climbing (Means ± S.E.M.) (Rats; 10 mg/kg PO): 17.9 ± 2.5; Rat Forced Swim Immobility (Means ± S.E.M.) (Rats; 10 mg/kg PO): 35.6 ± 3.5; Rat Forced Swim Swimming (Means ± S.E.M.) (Rats; 10 mg/kg PO): 6.5 ± 1.6; Rat Forced Swim Climbing (Means ± S.E.M.) (Rats; 30 mg/kg PO): 20.6 ± 2.9; Rat Forced Swim Immobility (Means ± S.E.M.) (Rats; 30 mg/kg PO): 26.9 ± 4.4; Rat Forced Swim Swimming (Means ± S.E.M.) (Rats; 30 mg/kg PO): 9.7 ± 1.7
CNCC1(c2ccc3ccccc3c2)CCCCC1 [Compound 93, N-methyl-1-(1-(naphthalen-2-yl)cyclohexyl)methanamine]	–	–	–	–	–	–	–	–	–	–	–	–	162.0 ± 8.1	9.0 ± 1.3	44.5 ± 2.5	–	–	–	–	–	Rat Forced Swim Swimming (Means ± S.E.M.) (Rats; 3 mg/kg PO): 6.5 ± 1.6; Rat Forced Swim Climbing (Means ± S.E.M.) (Rats; 10 mg/kg PO): 12.8 ± 2.2; Rat Forced Swim Immobility (Means ± S.E.M.) (Rats; 10 mg/kg PO): 41.4 ± 2.8; Rat Forced Swim Swimming (Means ± S.E.M.) (Rats; 10 mg/kg PO): 6.9 ± 1.3; Rat Forced Swim Climbing (Means ± S.E.M.) (Rats; 30 mg/kg PO): 22.2 ± 3.5; Rat Forced Swim Immobility (Means ± S.E.M.) (Rats; 30 mg/kg PO): 25.8 ± 5.4; Rat Forced Swim Swimming (Means ± S.E.M.) (Rats; 30 mg/kg PO): 12.0 ± 2.1
CNCC1(c2ccc(Cl)c(Cl)c2)CCC(C)(O)CC1 (centres unmarked) [Compound 276, 4-(3,4-dichlorophenyl)-1-methyl-4-((methylamino)methyl)cyclohexanol]	1602 ± 51	1631 ± 92	1553 ± 27	1138 ± 59	–	16312 ± 2396	10397 ± 931	-21	-9	-6	31	–	–	–	–	12	-4	-6	-1	26	pIC50 [1]: 7.15; DAT Mean Specific Binding ± S.E.M. ([4]; 10 mg/kg PO): 15879 ± 2265 dpm; SERT Mean Specific Binding ± S.E.M. ([6]; 1 mg/kg PO): 3743 ± 199 dpm; SERT Mean Specific Binding ± S.E.M. ([6]; 3 mg/kg PO): 3685 ± 292 dpm; SERT Mean Specific Binding ± S.E.M. ([6]; 10 mg/kg PO): 3092 ± 207 dpm; SERT Mean Specific Binding ± S.E.M. ([6]; 30 mg/kg PO): 1558 ± 169 dpm; receptor occupancy at 3 mg/kg ([6]; 3 mg/kg PO): 14%; receptor occupancy at 10 mg/kg ([6]; 10 mg/kg PO): 28%; receptor occupancy at 30 mg/kg ([6]; 30 mg/kg PO): 64%
CN(C)CC1(c2ccc(Cl)c(Cl)c2)CCC(C)(O)CC1 (centres unmarked) [Compound 277, 4-(3,4-dichlorophenyl)-4-((dimethylamino)methyl)-1-methylcyclohexanol]	950 ± 46	824 ± 30	533 ± 25	294 ± 42	35827 ± 2302	34136 ± 4104	31743 ± 4406	17	21	23	26	–	–	–	–	-6	6	18	47	71	pIC50 [1]: 7.39; DAT Mean Specific Binding ± S.E.M. ([4]; 10 mg/kg PO): 33230 ± 2807 dpm; SERT Mean Specific Binding ± S.E.M. ([6]; 1 mg/kg PO): 1508 ± 86 dpm; SERT Mean Specific Binding ± S.E.M. ([6]; 3 mg/kg PO): 1491 ± 75 dpm; SERT Mean Specific Binding ± S.E.M. ([6]; 10 mg/kg PO): 1416 ± 43 dpm; SERT Mean Specific Binding ± S.E.M. ([6]; 30 mg/kg PO): 1384 ± 101 dpm; receptor occupancy at 3 mg/kg ([6]; 3 mg/kg PO): -5%; receptor occupancy at 10 mg/kg ([6]; 10 mg/kg PO): 0%; receptor occupancy at 30 mg/kg ([6]; 30 mg/kg PO): 3%
